Assay results: patent US20250114345A1, “COMPOUNDS AND COMPOSITIONS AS CBP/P300 DEGRADERS AND USES THEREOF” (Oncopia Therapeutics, Inc. d/b/a/ SK Life Science Labs, priority 2023, published 2025)

Molecular target: T1, p300 (Homo sapiens, UniProt Q09472)
T1 construct: host or cells: A549 P300 HiBit cells
Experiment: P300 degradation, HiBit technology in A549 P300 HiBit cells (2 h)
Format: cell-based
Conditions: 2 hrs post treatment; for Dmax: A549, A549 P300 HiBit cells; for DC50: A549 P300 HiBit cells
Procedure, shortened: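 Cells: A549 HiBiT-tagged lines, 0.2×10^4/well, F-12K + 10% HI-FBS, equilibrated overnight. Tx: serial dilution of cpd (10 mM DMSO stock). Readout: HiBiT lytic reagent, 10 min RT shaking, luminescence → potency, Dmax.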

T1 sequence (Q09472 whole entry): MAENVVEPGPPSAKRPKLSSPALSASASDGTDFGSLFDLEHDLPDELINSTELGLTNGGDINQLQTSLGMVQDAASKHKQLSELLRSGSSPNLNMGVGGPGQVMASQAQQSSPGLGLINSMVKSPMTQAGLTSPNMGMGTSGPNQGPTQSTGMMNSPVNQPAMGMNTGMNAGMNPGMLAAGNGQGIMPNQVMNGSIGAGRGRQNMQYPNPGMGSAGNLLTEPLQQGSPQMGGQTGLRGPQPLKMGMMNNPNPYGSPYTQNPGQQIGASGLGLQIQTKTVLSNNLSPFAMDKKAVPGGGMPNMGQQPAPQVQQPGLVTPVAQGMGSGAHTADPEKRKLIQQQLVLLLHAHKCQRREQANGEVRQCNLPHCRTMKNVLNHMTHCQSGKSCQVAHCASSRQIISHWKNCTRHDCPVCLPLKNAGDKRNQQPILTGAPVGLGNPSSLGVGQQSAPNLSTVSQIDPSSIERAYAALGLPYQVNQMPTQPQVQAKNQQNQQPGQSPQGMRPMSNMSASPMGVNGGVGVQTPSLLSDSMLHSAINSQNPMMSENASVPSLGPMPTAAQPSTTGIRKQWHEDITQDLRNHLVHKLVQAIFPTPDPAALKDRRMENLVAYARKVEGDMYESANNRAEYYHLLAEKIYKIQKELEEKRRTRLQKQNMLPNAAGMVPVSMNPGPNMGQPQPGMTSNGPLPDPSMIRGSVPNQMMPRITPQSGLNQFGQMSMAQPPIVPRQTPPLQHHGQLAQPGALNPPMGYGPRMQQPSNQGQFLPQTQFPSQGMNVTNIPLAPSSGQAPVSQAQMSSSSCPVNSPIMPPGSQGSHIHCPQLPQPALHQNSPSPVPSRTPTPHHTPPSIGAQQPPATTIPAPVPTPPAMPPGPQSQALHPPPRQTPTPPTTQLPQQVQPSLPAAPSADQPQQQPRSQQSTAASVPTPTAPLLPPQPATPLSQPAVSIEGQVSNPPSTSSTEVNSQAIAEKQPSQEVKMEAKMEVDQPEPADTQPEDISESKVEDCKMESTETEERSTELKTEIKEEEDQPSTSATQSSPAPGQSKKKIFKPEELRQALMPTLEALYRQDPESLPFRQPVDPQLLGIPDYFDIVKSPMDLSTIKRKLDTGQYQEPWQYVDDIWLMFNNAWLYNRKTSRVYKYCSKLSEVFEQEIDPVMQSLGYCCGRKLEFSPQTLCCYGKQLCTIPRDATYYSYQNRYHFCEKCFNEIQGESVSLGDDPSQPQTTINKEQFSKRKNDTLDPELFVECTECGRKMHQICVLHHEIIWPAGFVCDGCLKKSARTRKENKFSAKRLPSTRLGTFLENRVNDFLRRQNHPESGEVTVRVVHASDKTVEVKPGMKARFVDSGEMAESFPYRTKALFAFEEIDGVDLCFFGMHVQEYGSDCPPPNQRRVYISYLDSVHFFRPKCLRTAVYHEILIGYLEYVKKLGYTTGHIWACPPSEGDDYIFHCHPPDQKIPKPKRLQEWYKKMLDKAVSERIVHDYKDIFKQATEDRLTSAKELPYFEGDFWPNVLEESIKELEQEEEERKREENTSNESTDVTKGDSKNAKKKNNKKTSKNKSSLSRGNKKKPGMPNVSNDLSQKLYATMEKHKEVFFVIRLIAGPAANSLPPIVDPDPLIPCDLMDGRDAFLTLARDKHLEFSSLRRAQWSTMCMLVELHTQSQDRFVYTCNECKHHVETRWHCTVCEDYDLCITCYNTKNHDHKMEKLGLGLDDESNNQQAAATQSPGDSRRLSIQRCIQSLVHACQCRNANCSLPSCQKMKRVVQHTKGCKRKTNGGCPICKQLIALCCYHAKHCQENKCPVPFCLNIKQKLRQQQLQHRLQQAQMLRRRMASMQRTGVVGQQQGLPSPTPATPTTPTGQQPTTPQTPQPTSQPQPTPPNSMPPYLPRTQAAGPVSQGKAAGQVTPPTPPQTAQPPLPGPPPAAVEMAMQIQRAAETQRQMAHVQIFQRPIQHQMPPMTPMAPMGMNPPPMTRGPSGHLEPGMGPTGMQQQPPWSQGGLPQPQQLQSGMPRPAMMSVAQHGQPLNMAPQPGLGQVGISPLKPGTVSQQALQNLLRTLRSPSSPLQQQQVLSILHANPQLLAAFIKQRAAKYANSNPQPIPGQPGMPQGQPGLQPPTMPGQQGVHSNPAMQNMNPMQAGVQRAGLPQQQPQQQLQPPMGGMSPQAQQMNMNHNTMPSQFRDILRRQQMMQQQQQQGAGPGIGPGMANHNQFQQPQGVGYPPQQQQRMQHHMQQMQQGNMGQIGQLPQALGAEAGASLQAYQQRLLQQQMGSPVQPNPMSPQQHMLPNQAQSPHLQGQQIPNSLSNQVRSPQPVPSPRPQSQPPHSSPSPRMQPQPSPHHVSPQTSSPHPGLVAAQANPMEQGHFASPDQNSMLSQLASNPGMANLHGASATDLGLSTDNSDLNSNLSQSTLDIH

SMILES	Dmax [%]	DC50 [nM]
CN1CCN(c2ccc3c(c2)n(C)c(=O)n3C)c2cnc(-c3ccc(C(=O)NCC#Cc4cc5c(C6CCC(=O)NC6=O)nccc5o4)nc3)cc21 (centres unmarked) [Example A218, 5-(4-(1,3-dimethyl-2-oxo-2,3-dihydro-1H-benzo[d]imidazol-5-yl)-1-methyl-1,2,3,4-tetrahydropyrido[3,4-b]pyrazin-7-yl)-N-(3-(4-(2,6-dioxo-piperidin-3-yl)furo[3,2-c]pyridin-2-yl)prop-2-yn-1-yl)picolinamide]	> 80	< 1
Cc1cc(N2CCN(C)c3nc(-c4ccc(C(=O)NCC#Cc5cc6c(C7CCC(=O)NC7=O)nccc6o5)nc4)ncc32)cc2c1n(C)c(=O)n2C (centres unmarked) [Example A220, N-(3-(4-(2,6-dioxo-piperidin-3-yl)furo[3,2-c]pyridin-2-yl)prop-2-yn-1-yl)-5-(8-methyl-5-(1,3,7-trimethyl-2-oxo-2,3-dihydro-1H-benzo [d]imidazol-5-yl)-5,6,7,8-tetrahydro-pteridin-2-yl)picolinamide]	> 80	1 to 9.9
Cc1nc(-c2cnc(N(C)c3cc(C4CCOCC4)c4c(c3)n(C)c(=O)n4C)cn2)cnc1C(=O)NCC#Cc1cc2c(C3CCC(=O)NC3=O)cccc2o1 (centres unmarked) [Example A222, 5′-((1,3-dimethyl-2-oxo-7-(tetrahydro-2H-pyran-4-yl)-2,3-dihydro-1H-benzo[d]imidazol-5-yl)(methyl)amino)-N-(3-(4-(2,6-dioxo-piperidin-3-yl)benzofuran-2-yl)prop-2-yn-1-yl)-6-methyl-[2,2′-bipyrazine]-5-carboxamide]	> 80	1 to 9.9
CCN(c1cnc(-c2ccc(C(=O)NCC#Cc3cc4c(C5CCC(=O)NC5=O)cccc4o3)nc2)nc1)c1cc(C2CCOCC2)c2c(c1)n(C)c(=O)n2C (centres unmarked) [Example A224, 5-(5-((1,3-dimethyl-2-oxo-7-(tetrahydro-2H-pyran-4-yl)-2,3-dihydro-1H-benzo[d]imidazol-5-yl)(ethyl)amino)pyrimidin-2-yl)-N-(3-(4-(2,6-dioxopiperidin-3-yl)benzofuran-2-yl)prop-2-yn-1-yl)picolinamide]	> 80	1 to 9.9
Cc1cc(-c2ncc(N(C)c3cc(C4CCOCC4)c4c(c3)n(C)c(=O)n4C)c(N(C)C)n2)cnc1C(=O)NCC#Cc1cc2c(C3CCC(=O)NC3=O)cccc2o1 (centres unmarked) [Example A225, 5-(5-((1,3-dimethyl-2-oxo-7-(tetrahydro-2H-pyran-4-yl)-2,3-dihydro-1H-benzo[d]imidazol-5-yl)(methyl)amino)-4-(dimethylamino)pyrimidin-2-yl)-N-(3-(4-(2,6-dioxopiperidin-3-yl)benzofuran-2-yl)prop-2-yn-1-yl)-3-methylpicolinamide]	< 20	> 1000
Cc1cc(-c2ncc3c(n2)CCCN3c2cc(C)c3c(c2)n(C)c(=O)n3C)cnc1C(=O)NCC#Cc1cc2c(C3CCC(=O)NC3=O)cccc2o1 (centres unmarked) [Example A227, N-(3-(4-(2,6-dioxo-piperidin-3-yl)benzofuran-2-yl)prop-2-yn-1-yl)-3-methyl-5-(5-(1,3,7-trimethyl-2-oxo-2,3-dihydro-1H-benzo [d]imidazol-5-yl)-5,6,7,8-tetrahydro-pyrido[3,2-d]pyrimidin-2-yl)picolinamide]	> 80	1 to 9.9
CC(C)c1cc(-c2cccc3cc(-c4ccc(C(=O)NCC#Cc5cc6c(C7CCC(=O)NC7=O)coc6cn5)nc4)ncc23)cc2c1n(C)c(=O)n2C (centres unmarked) [Example A228, N-(3-(3-(2,6-dioxo-piperidin-3-yl)furo[2,3-c]pyridin-5-yl)prop-2-yn-1-yl)-5-(8-(7-isopropyl-1,3-dimethyl-2-oxo-2,3-dihydro-1H-benzo [d]imidazol-5-yl)isoquinolin-3-yl)picolinamide]	60 to 79	1 to 9.9
CN(c1cnc(-c2ccc(C(=O)NCC#Cc3cc4c(C5CCC(=O)NC5=O)cccc4o3)nc2)nc1)c1cc(C2CCOCC2)c2c(c1)n(C)c(=O)n2C (centres unmarked) [Example A229, 5-(5-((1,3-dimethyl-2-oxo-7-(tetrahydro-2H-pyran-4-yl)-2,3-dihydro-1H-benzo[d]imidazol-5-yl)(methyl)amino)pyrimidin-2-yl)-N-(3-(4-(2,6-dioxo-piperidin-3-yl)benzofuran-2-yl)prop-2-yn-1-yl)picolinamide]	> 80	< 1
Cn1cc(-c2ccc3c(c2)n(C)c(=O)n3C)c2cnc(-c3ccc(C(=O)NCC#Cc4cc5c(C6CCC(=O)NC6=O)nccc5o4)nc3)cc2c1=O (centres unmarked) [Example A230, 5-(8-(1,3-dimethyl-2-oxo-2,3-dihydro-1H-benzo[d]imidazol-5-yl)-6-methyl-5-oxo-5,6-dihydro-2,6-naphthyridin-3-yl)-N-(3-(4-(2,6-dioxopiperidin-3-yl)furo[3,2-c]pyridin-2-yl)prop-2-yn-1-yl)picolinamide]	> 80	1 to 9.9
Cc1cc(-c2ncc3c(n2)CCCN3c2ccc3c(c2)n(C)c(=O)n3C)cnc1C(=O)NCC#Cc1cc2c(C3CCC(=O)NC3=O)cccc2o1 (centres unmarked) [Example A231, 5-(5-(1,3-dimethyl-2-oxo-2,3-dihydro-1H-benzo[d]imidazol-5-yl)-5,6,7,8-tetra-hydropyrido[3,2-d]pyrimidin-2-yl)-N-(3-(4-(2,6-dioxo-piperidin-3-yl)benzofuran-2-yl)prop-2-yn-1-yl)-3-methylpicolinamide]	> 80	1 to 9.9
CC(C)c1cc(-c2cccc3cc(-c4ccc(C(=O)NCC#Cc5cc6c(C7CCC(=O)NC7=O)cn(C)c6cn5)nc4)ncc23)cc2c1n(C)c(=O)n2C (centres unmarked) [Example A232, N-(3-(3-(2,6-dioxo-piperidin-3-yl)-1-methyl-1H-pyrrolo [2,3-c]pyridin-5-yl)prop-2-yn-1-yl)-5-(8-(7-isopropyl-1,3-dimethyl-2-oxo-2,3-dihydro-1H-benzo[d]imidazol-5-yl)isoquinolin-3-yl)picolinamide]	40 to 59	10 to 99
CC(C)c1cc(-c2cccc3cc(-c4ccc(C(=O)NCC#Cc5cc(C#N)c6occ(C7CCC(=O)NC7=O)c6c5)nc4)ncc23)cc2c1n(C)c(=O)n2C (centres unmarked) [Example A233, N-(3-(7-cyano-3-(2,6-dioxopiperidin-3-yl)benzofuran-5-yl)prop-2-yn-1-yl)-5-(8-(7-isopropyl-1,3-dimethyl-2-oxo-2,3-dihydro-1H-benzo [d]imidazol-5-yl)isoquinolin-3-yl)picolinamide]	40 to 59	10 to 99
Cc1cc(-c2ncc(N(C)c3cc(C(C)C)c4c(c3)n(C)c(=O)n4C)cn2)cnc1C(=O)NCC#Cc1cc2c(C3CCC(=O)NC3=O)coc2cc1F (centres unmarked) [Example A235, N-(3-(3-(2,6-dioxo-piperidin-3-yl)-6-fluorobenzofuran-5-yl)prop-2-yn-1-yl)-5-(5-((7-isopropyl-1,3-dimethyl-2-oxo-2,3-dihydro-1H-benzo [d]imidazol-5-yl)(methyl)amino)pyrimidin-2-yl)-3-methylpicolinamide]	> 80	1 to 9.9
Cc1cc(-c2ncc(Nc3cc(C4CCOCC4)c4c(c3)n(C)c(=O)n4C)cn2)cnc1C(=O)NCC#Cc1cc2c(C3CCC(=O)NC3=O)cccc2o1 (centres unmarked) [Example A236, 5-(5-((1,3-dimethyl-2-oxo-7-(tetrahydro-2H-pyran-4-yl)-2,3-dihydro-1H-benzo[d]imidazol-5-yl)amino)pyrimidin-2-yl)-N-(3-(4-(2,6-dioxopiperidin-3-yl)benzofuran-2-yl)prop-2-yn-1-yl)-3-methylpicolinamide]	40 to 59	10 to 99
Cc1cc(N2CCN(C)c3cc(-c4ccc(C(=O)NCC#Cc5cc6c(C7CCC(=O)NC7=O)cccc6o5)nc4)ncc32)cc2c1n(C)c(=O)n2C (centres unmarked) [Example A239, N-(3-(4-(2,6-dioxo-piperidin-3-yl)benzofuran-2-yl)prop-2-yn-1-yl)-5-(1-methyl-4-(1,3,7-trimethyl-2-oxo-2,3-dihydro-1H-benzo [d]imidazol-5-yl)-1,2,3,4-tetrahydro-pyrido[3,4-b]pyrazin-7-yl)picolinamide]	> 80	< 1
CC(C)c1cc(-c2cccc3cc(-c4ccc(C(=O)NCC#Cc5cc6c(C7CCC(=O)NC7=O)coc6cc5C#N)nc4)ncc23)cc2c1n(C)c(=O)n2C (centres unmarked) [Example A240, N-(3-(6-cyano-3-(2,6-dioxopiperidin-3-yl)benzofuran-5-yl)prop-2-yn-1-yl)-5-(8-(7-isopropyl-1,3-dimethyl-2-oxo-2,3-dihydro-1H-benzo [d]imidazol-5-yl)isoquinolin-3-yl)picolinamide]	40 to 59	10 to 99
Cc1cc(-c2ncc3c(n2)OCCN3c2cc(C)c3c(c2)n(C)c(=O)n3C)cnc1C(=O)NCC#Cc1cc2c(C3CCC(=O)NC3=O)cccc2o1 (centres unmarked) [Example A241, N-(3-(4-(2,6-dioxo-piperidin-3-yl)benzofuran-2-yl)prop-2-yn-1-yl)-3-methyl-5-(5-(1,3,7-trimethyl-2-oxo-2,3-dihydro-1H-benzo [d]imidazol-5-yl)-6,7-dihydro-5H-pyrimido [4,5-b][1,4]oxazin-2-yl)picolinamide]	> 80	1 to 9.9
CN1CCN(c2ccc3c(c2)n(C)c(=O)n3C)c2cc(C(F)(F)F)c(-c3ccc(C(=O)NCC#Cc4cc5c(C6CCC(=O)NC6=O)cccc5o4)nc3)cc21 (centres unmarked) [Example A242, 5-(1-(1,3-dimethyl-2-oxo-2,3-dihydro-1H-benzo[d]imidazol-5-yl)-4-methyl-7-(trifluoromethyl)-1,2,3,4-tetrahydroquinoxalin-6-yl)-N-(3-(4-(2,6-dioxopiperidin-3-yl)benzofuran-2-yl)prop-2-yn-1-yl)picolinamide]	> 80	1 to 9.9
Cc1cc(-c2cc(F)c(Nc3cc(C4CCOCC4)c4c(c3)n(C)c(=O)n4C)cc2C(F)(F)F)cnc1C(=O)NCC#Cc1cc2c(C3CCC(=O)NC3=O)cccc2o1 (centres unmarked) [Example A244, 5-(4-((1,3-dimethyl-2-oxo-7-(tetrahydro-2H-pyran-4-yl)-2,3-dihydro-1H-benzo[d]imidazol-5-yl)amino)-5-fluoro-2-(trifluoromethyl)phenyl)-N-(3-(4-(2,6-dioxopiperidin-3-yl)benzofuran-2-yl)prop-2-yn-1-yl)-3-methylpicolinamide]	40 to 59	10 to 99
